Assays:
Format in all cases: cell-based
SW480 colon cancer cells = assay: Cell viability assay (CellTiter-Blue) in SW480 colon cancer cells; conditions: Homo sapiens; for EC50: 96 h, SW480 cell viability, four days incubation; for inhibition at 10 µM: SW480, read-out: percent inhibition at 10 μM
How it was run: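 Fluorescence from resazurin reduced to resorufin by metabolically active cells was the read-out, taken after ~3 h with CellTiter-Blue.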

[1] = tested on: Primary human fibroblasts derived from IPF patients (LL29 cells); assay: Inhibition of the fibrotic process: αSMA staining in TGF-β1-treated LL29 fibroblasts; conditions: Fibroblast, 96 h, LL29 cells, TGF-β1 20 ng/mL, 4 days, % αSMA-positive cells
How it was run: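 LL29 IPF-patient lung fibroblasts plated in F12 with 1% FBS, treated with TGF-β1 plus compound; TGF-β1/DMSO wells served as controls. After 4 days incubation, SYTOX green (1 μM final) added for 30 min at room temperature; αSMA staining used as fibrosis read-out.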

[2] = tested on: Wnt activity (Sp5-Luc reporter, SW480 colon carcinoma cells); assay: Screening assay for Wnt activity: Sp5-Luc reporter gene assay in SW480 cells; conditions: Homo sapiens; for EC50: SW480 Sp5-Luc reporter, overnight incubation; for inhibition at 10 µM: SW480, read-out: percent inhibition at 10 μM
How it was run: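 SW480 colon carcinoma cells stably carrying Sp5 promoter (eight TCF/LEF sites)-driven firefly luciferase, plated at 4,000 cells/well in 1% FBS medium and incubated overnight at 37° C. Luminescence normalised to DMSO-only cells; EC50 from four-parameter variable-slope nonlinear regression.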

[3] = tested on: primary human mesenchymal stem cells (hMSCs); assay: Induction of chondrogenesis in hMSCs (nodule imaging, Rhodamine B / Nile Red); conditions: 6 days; for EC50: concentration required to induce 50% levels of chondrogenesis vs TGF-β3, read-out: Conc (nM) of 50% TGF-β3 activity; for Emax: relative to TGF-β3 (10 ng/mL) positive control, read-out: Max. Activity as % TGF-β3 activity
How it was run: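 Primary hMSCs at passage 3-6 were treated with compound; nodule area per well was normalized to the mean of 3 DMSO wells, averaged over 2-3 replicates, and the concentration giving 50% chondrogenesis relative to TGF-β3 control, plus maximum activity and its dose, was derived.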

IL-6 (THP-1 cells) = assay: IL-6 inhibition in THP-1 monocytes (HTRF); conditions: Homo sapiens; for inhibition at 10 µM: THP-1, read-out: percentage in parentheses printed under EC50 >10; for EC50: IL-6 inhibition, THP-1 cells, HTRF, 10-point dose-response starting from 10 μM
How it was run: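 THP-1 cells serum-reduced (1% FBS, 24 h), plated 5000/well, stimulated with 500 ng/mL […] after 2 h and incubated a further 22 h at 37 °C. Secreted IL-6 quantified by HTRF (665/620 nm ratio), normalized to DMSO; EC50 from four-parameter fit, duplicates.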

SMILES	EC50 (SW480 colon cancer cells)	inhibition at 10 µM (SW480 colon cancer cells)	EC50 [1]	EC50 [2]	EC50 [3]	Emax [3]	inhibition at 10 µM (IL-6 (THP-1 cells))	EC50 (IL-6 (THP-1 cells))	inhibition at 10 µM [2]
CN1CCN(c2cncc3[nH]c(-c4n[nH]c5ccc(-c6cncc(N)c6)cc45)cc23)CC1 [Compound 227, 5-(3-(4-(4-Methylpiperazin-1-yl)-1H-pyrrolo[2,3-c]pyridin-2-yl)-1H-indazol-5-yl)pyridin-3-amine]	> 10000 nM	37.2%	5310 nM	8250 nM	30 nM	51%	48.5%	> 10000 nM	
CCCC(=O)Nc1cncc(-c2ccc3[nH]nc(-c4cc5c(-c6ccncc6)cncc5[nH]4)c3c2)c1 [Compound 129, N-(5-(3-(4-(Pyridin-4-yl)-1H-pyrrolo[2,3-c]pyridin-2-yl)-1H-indazol-5-yl)pyridin-3-yl)butyramide]	> 10000 nM	15.5%	6200 nM	> 10000 nM	100 nM	124%		1020 nM	25.5%
FC1(F)CCN(Cc2cncc(-c3ccc4[nH]nc(-c5cc6c(-c7cccnc7)cncc6[nH]5)c4c3)c2)C1 [Compound 110, 5-(5-((3,3-Difluoropyrrolidin-1-yl)methyl)pyridin-3-yl)-3-(4-(pyridin-3-yl)-1H-pyrrolo[2,3-c]pyridin-2-yl)-1H-indazole]	1280 nM		337 nM	526 nM	900 nM	256%		353 nM	
c1ncc(-c2ccc3[nH]nc(-c4cc5c(N6CCCCC6)cncc5[nH]4)c3c2)cc1CN1CCCC1 [Compound 182, 3-(4-(Piperidin-1-yl)-1H-pyrrolo[2,3-c]pyridin-2-yl)-5-(5-(pyrrolidin-1-ylmethyl)pyridin-3-yl)-1H-indazole]	4340 nM		2420 nM	1840 nM		25%		503 nM	
c1cncc(-c2cncc3[nH]c(-c4n[nH]c5ccc(-c6cncc(CN7CCCCC7)c6)cc45)cc23)c1 [Compound 99, 5-(5-(Piperidin-1-ylmethyl)pyridin-3-yl)-3-(4-(pyridin-3-yl)-1H-pyrrolo[2,3-c]pyridin-2-yl)-1H-indazole]	3370 nM		4040 nM	> 10000 nM		40%		5700 nM	31.2%
CC(C)Nc1cncc(-c2ccc3[nH]nc(-c4cc5c(-c6cccnc6)cncc5[nH]4)c3c2)c1 [Compound 96, N-Isopropyl-5-(3-(4-(pyridin-3-yl)-1H-pyrrolo[2,3-c]pyridin-2-yl)-1H-indazol-5-yl)pyridin-3-amine]	836 nM		315 nM	670 nM		42%		128 nM	
c1ccc(CNCc2cncc(-c3ccc4[nH]nc(-c5cc6c(-c7cccs7)cncc6[nH]5)c4c3)c2)cc1 [Compound 360]	835 nM		187 nM	578 nM	10 nM	57%		57 nM	
CN(C)Cc1cncc(-c2ccc3[nH]nc(-c4cc5c(-c6cccc(F)c6)cncc5[nH]4)c3c2F)c1 [Compound 993, 1-(5-(4-Fluoro-3-(4-(3-fluorophenyl)-1H-pyrrolo[2,3-c]pyridin-2-yl)-1H-indazol-5-yl)pyridin-3-yl)-N,N-dimethylmethanamine]	1600 nM		1700 nM	> 10000 nM	2700 nM	114%	18.1%	> 10000 nM	46.8%
Fc1cccc(-c2cncc3[nH]c(-c4n[nH]c5ccc(-c6cncc(CN7CCC(F)(F)C7)c6)cc45)cc23)c1 [Compound 26, 5-(5-((3,3-Difluoropyrrolidin-1-yl)methyl)pyridin-3-yl)-3-(4-(3-fluorophenyl)-1H-pyrrolo[2,3-c]pyridin-2-yl)-1H-indazole]	734 nM		322 nM	160 nM	2700 nM	87%		74 nM	

Reference: patent publication US20180228780A1, “3-(1H-PYRROLO[2,3-C]PYRIDIN-2-YL)-1H-INDAZOLES AND THERAPEUTIC USES THEREOF” (Samumed, LLC, priority 2015, published 2018)
